Key:
[1] = molecular target: CYP2C19 (Homo sapiens, UniProt P33261); test: Inhibition of recombinant human CYP2C19 assessed as remaining activity at 10 uM preincubated for 5 mins followed by substrate and NADP addition measured after 20 mins by fluorescence assay relative to control; type: ADME; settings: read-out: Activity
[2] = molecular target: T1, Metabotropic glutamate receptor 1 (Homo sapiens, UniProt Q13255); test: Agonist activity at mGlu1 receptor (unknown origin) at 12.5 uM relative to control
T1 sequence (Q13255 19-1194 limits assumed): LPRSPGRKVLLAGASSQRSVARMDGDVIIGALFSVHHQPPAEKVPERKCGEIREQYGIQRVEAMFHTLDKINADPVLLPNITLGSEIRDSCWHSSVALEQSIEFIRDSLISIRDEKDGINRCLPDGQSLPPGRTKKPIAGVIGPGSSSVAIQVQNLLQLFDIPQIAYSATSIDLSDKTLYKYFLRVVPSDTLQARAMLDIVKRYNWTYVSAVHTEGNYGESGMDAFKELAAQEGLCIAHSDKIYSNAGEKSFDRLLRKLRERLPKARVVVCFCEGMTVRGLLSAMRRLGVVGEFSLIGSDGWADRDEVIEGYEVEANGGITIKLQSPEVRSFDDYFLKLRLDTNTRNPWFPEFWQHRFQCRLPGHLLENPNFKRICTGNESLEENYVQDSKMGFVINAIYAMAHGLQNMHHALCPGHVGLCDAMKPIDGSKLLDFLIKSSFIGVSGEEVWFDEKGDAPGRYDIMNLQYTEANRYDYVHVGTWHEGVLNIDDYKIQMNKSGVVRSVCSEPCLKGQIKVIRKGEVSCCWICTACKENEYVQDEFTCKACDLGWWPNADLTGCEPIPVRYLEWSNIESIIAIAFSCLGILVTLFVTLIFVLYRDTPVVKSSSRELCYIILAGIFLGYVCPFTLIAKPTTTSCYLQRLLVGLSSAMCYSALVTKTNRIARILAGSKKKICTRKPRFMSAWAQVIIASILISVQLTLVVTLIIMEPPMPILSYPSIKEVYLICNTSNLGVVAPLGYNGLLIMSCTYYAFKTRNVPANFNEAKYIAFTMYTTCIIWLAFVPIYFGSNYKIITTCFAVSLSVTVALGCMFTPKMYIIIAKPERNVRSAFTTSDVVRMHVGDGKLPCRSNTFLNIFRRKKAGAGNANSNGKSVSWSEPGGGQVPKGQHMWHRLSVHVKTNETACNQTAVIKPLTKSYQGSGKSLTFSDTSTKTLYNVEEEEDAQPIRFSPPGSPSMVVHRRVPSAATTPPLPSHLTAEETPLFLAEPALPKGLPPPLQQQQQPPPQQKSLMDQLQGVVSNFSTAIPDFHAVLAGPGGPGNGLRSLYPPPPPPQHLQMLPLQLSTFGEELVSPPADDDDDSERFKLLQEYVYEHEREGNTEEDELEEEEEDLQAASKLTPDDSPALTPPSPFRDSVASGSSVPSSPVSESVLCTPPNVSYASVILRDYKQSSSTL

[3] = molecular target: T1, Metabotropic glutamate receptor 1; test: Antagonist activity at mGlu1 receptor (unknown origin) at 10 uM relative to control
[4] = molecular target: Substance-P receptor (Homo sapiens) (UniProt P25103); test: Antagonist activity at NK1 receptor (unknown origin) at 10 uM relative to control
Sequence of Substance-P receptor (Homo sapiens) (P25103 whole entry): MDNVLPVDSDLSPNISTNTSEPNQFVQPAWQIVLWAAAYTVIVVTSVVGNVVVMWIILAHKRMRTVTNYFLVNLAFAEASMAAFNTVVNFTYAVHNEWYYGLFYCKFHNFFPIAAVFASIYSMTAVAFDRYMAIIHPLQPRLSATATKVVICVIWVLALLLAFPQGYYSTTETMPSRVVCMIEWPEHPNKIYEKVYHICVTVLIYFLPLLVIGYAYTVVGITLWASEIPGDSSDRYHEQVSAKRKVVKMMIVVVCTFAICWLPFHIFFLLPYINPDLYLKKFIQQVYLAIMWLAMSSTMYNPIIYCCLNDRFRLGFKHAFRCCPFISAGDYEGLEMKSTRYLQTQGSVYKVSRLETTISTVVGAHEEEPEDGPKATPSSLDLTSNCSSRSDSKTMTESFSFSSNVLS

[5] = molecular target: C-X-C chemokine receptor type 4 (Homo sapiens) (UniProt P61073); test: Agonist activity at CXCR4 (unknown origin) at 12.5 uM relative to control
[6] = Plasma concentration in Sprague-Dawley rat at 10 mg/kg, iv measured at 8 hrs by LC-MS/MS analysis; type: ADME, organism-based; design: dose 10 mg/kg, route intravenous
[7] = molecular target: T1, Metabotropic glutamate receptor 1; test: Antagonist activity at human mGluR1 expressed in human Chem-3 cells assessed as inhibition of L-glutamate-induced calcium release at 10 uM by calcium-5 reagent-based fluorescence assay relative to control; type: functional, cell-based
[8] = molecular target: C-C chemokine receptor type 4 (Homo sapiens) (UniProt P51679); test: Agonist activity at CCR4 (unknown origin) at 12.5 uM relative to control
Sequence of C-C chemokine receptor type 4 (Homo sapiens) (P51679 whole entry): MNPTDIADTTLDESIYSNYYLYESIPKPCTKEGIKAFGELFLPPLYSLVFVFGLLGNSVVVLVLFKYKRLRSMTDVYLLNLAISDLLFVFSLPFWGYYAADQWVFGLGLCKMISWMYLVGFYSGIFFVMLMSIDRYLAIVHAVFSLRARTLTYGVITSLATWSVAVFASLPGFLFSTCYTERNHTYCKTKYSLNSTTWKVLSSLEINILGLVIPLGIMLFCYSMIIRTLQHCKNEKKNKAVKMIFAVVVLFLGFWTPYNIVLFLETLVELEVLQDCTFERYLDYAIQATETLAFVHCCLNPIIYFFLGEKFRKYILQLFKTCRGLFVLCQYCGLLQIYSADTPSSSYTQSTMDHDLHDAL

[9] = molecular target: C-X-C chemokine receptor type 2 (Homo sapiens) (UniProt P25025); test: Antagonist activity at CXCR2 (unknown origin) at 10 uM relative to control
Sequence of C-X-C chemokine receptor type 2 (Homo sapiens) (P25025 whole entry): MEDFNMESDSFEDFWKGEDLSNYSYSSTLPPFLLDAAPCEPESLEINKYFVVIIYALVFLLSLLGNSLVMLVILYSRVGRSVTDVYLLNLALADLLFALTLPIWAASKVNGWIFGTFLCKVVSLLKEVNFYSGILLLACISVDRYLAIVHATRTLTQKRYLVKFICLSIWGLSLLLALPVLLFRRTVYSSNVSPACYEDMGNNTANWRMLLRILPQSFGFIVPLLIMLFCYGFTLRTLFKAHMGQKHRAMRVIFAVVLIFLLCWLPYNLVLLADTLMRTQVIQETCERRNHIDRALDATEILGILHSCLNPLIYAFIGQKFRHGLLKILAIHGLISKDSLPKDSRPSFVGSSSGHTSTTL

[10] = Plasma concentration in Sprague-Dawley rat at 10 mg/kg, po measured at 8 hrs by LC-MS/MS analysis; type: ADME, organism-based; design: dose 10 mg/kg, route oral
[11] = Drug uptake in Sprague-Dawley rat brain at 10 mg/kg, iv measured at 2 hrs by LC-MS/MS analysis; type: ADME, organism-based; design: dose 10 mg/kg, route intravenous; settings: read-out: Drug uptake
[12] = Ratio of drug level in brain to plasma in Sprague-Dawley rat at 10 mg/kg, po measured at 2 hrs by LC-MS/MS analysis; type: ADME, organism-based; design: dose 10 mg/kg, route oral; settings: read-out: BPR
[13] = molecular target: T2, CYP1A2 (Homo sapiens, UniProt P05177); test: Inhibition of recombinant human CYP1A2 assessed as remaining activity at 10 uM preincubated for 5 mins followed by substrate and NADP addition measured after 20 mins by fluorescence assay relative to control; type: ADME; settings: read-out: Activity
T2 sequence (P05177 whole entry): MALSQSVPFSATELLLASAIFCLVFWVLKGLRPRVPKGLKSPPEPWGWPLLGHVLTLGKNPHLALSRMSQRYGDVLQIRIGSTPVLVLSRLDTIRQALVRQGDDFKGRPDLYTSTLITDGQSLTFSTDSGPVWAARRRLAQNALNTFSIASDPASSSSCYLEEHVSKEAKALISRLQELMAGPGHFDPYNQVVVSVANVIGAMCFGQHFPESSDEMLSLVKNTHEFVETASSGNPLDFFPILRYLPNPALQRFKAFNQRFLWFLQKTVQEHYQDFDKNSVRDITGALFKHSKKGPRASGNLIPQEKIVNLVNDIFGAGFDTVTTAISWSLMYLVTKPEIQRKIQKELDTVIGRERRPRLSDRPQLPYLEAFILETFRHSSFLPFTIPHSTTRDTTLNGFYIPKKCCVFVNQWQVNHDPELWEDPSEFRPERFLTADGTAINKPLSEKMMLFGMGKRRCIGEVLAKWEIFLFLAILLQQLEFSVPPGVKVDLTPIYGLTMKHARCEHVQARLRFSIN

[14] = molecular target: C-C chemokine receptor type 2 (Homo sapiens) (UniProt P41597); test: Antagonist activity at CCR2B (unknown origin) at 10 uM relative to control
[15] = Total clearance in Sprague-Dawley rat at 10 mg/kg, iv by LC-MS/MS analysis; type: ADME, organism-based; design: dose 10 mg/kg, route intravenous; settings: in vivo
[16] = molecular target: Delta-type opioid receptor (Homo sapiens) (UniProt P41143); test: Agonist activity at OPRD1 receptor (unknown origin) at 12.5 uM relative to control
Sequence of Delta-type opioid receptor (Homo sapiens) (P41143 whole entry): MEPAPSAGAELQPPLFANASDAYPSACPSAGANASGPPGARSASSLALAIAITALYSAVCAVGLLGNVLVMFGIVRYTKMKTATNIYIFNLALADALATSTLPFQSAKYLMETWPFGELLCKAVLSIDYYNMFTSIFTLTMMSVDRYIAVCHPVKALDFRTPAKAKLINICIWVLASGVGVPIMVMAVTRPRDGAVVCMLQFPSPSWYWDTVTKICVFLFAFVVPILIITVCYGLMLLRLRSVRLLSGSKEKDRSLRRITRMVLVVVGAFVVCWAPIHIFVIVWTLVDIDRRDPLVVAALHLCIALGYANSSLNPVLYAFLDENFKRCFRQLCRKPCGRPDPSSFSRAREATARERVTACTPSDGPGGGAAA

[17] = molecular target: Cannabinoid receptor 1 (Homo sapiens) (UniProt P21554); test: Agonist activity at CB1 receptor (unknown origin) at 12.5 uM relative to control
[18] = AUClast in Sprague-Dawley rat at 10 mg/kg, iv by LC-MS/MS analysis; type: ADME, organism-based; design: time 0 - last, dose 10 mg/kg, route intravenous; settings: plasma
[19] = Ratio of drug level in brain to plasma in Sprague-Dawley rat at 10 mg/kg, iv measured at 2 hrs by LC-MS/MS analysis; type: ADME, organism-based; design: dose 10 mg/kg, route intravenous; settings: read-out: BPR
[20] = Drug uptake in Sprague-Dawley rat brain at 10 mg/kg, po measured at 2 hrs by LC-MS/MS analysis; type: ADME, organism-based; design: dose 10 mg/kg, route oral; settings: read-out: Drug uptake
[21] = molecular target: C-X-C chemokine receptor type 2 (Homo sapiens) (UniProt P25025); test: Agonist activity at CXCR2 (unknown origin) at 12.5 uM relative to control
[22] = molecular target: Substance-P receptor (Homo sapiens) (UniProt P25103); test: Agonist activity at NK1 receptor (unknown origin) at 12.5 uM relative to control
[23] = molecular target: Metabotropic glutamate receptor 5 (Homo sapiens, UniProt P41594); test: Antagonist activity at human mGluR5 expressed in human embryonic kidney cells assessed as inhibition of L-glutamate-induced calcium release at 10 uM by calcium-5 reagent-based fluorescence assay relative to control; type: functional, cell-based
Sequence of Metabotropic glutamate receptor 5 (P41594 21-1212 limits assumed): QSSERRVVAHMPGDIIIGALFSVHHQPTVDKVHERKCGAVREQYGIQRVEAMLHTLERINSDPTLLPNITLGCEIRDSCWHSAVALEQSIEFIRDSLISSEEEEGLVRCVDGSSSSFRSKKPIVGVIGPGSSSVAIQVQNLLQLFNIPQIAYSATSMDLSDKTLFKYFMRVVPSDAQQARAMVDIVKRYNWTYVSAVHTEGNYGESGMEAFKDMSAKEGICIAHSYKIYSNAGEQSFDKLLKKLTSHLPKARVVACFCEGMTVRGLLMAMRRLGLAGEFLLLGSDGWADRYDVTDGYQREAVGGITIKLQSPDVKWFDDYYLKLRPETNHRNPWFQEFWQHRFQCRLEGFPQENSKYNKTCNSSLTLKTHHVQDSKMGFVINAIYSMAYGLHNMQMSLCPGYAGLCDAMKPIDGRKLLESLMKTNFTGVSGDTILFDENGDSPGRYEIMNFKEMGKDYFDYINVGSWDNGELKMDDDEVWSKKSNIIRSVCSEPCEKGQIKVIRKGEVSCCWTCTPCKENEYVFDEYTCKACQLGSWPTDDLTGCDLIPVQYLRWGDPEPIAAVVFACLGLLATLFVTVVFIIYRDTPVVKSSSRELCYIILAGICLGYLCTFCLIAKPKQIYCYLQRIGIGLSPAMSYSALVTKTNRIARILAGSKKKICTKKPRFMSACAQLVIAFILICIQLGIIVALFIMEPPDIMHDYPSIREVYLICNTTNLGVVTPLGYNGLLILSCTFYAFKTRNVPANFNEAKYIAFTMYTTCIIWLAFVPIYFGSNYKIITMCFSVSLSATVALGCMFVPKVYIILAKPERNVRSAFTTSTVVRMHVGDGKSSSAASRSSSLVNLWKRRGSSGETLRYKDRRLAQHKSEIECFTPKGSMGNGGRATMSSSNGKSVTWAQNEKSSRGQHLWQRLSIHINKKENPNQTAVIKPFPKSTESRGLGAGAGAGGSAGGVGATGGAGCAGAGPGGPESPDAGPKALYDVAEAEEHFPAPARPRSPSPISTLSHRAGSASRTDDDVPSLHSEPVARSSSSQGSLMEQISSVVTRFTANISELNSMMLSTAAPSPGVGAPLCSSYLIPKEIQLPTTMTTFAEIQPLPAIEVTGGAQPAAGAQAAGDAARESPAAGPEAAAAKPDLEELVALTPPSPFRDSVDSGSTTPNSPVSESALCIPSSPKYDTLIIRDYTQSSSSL

[24] = tested on: Rattus norvegicus; test: Analgesic activity in rat spinal nerve ligation model of neuropathic pain assessed as recovery from mechanical allodynia at 100 mg/kg, po administered on day 14 post ligation surgery measured after 3 hrs relative to control; type: functional
[25] = Mean residence time in Sprague-Dawley rat at 10 mg/kg, iv by LC-MS/MS analysis; type: ADME, organism-based; design: dose 10 mg/kg, route intravenous; settings: in vivo
[26] = AUC (0 to infinity) in Sprague-Dawley rat at 10 mg/kg, iv by LC-MS/MS analysis; type: ADME, organism-based; design: time infinity, dose 10 mg/kg, route intravenous; settings: plasma
[27] = AUClast in Sprague-Dawley rat at 10 mg/kg, po by LC-MS/MS analysis; type: ADME, organism-based; design: time 0 - last, dose 10 mg/kg, route oral; settings: plasma
[28] = molecular target: B2 bradykinin receptor (Homo sapiens) (UniProt P30411); test: Agonist activity at BDKR2 (unknown origin) at 12.5 uM relative to control
[29] = Tmax in Sprague-Dawley rat at 10 mg/kg, po by LC-MS/MS analysis; type: ADME, organism-based; design: dose 10 mg/kg, route oral; settings: in vivo
[30] = Cmax in Sprague-Dawley rat at 10 mg/kg, po by LC-MS/MS analysis; type: ADME, organism-based; design: dose 10 mg/kg, route oral; settings: in vivo
[31] = Bioavailability in Sprague-Dawley rat at 10 mg/kg, iv by LC-MS/MS analysis; type: ADME, organism-based; settings: in vivo
[32] = molecular target: Delta-type opioid receptor (Homo sapiens) (UniProt P41143); test: Antagonist activity at OPRD1 receptor (unknown origin) at 10 uM relative to control
[33] = molecular target: 5-hydroxytryptamine receptor 2C (Homo sapiens) (UniProt P28335); test: Antagonist activity at 5HT2C receptor (unknown origin) at 10 uM relative to control
Sequence of 5-hydroxytryptamine receptor 2C (Homo sapiens) (P28335 whole entry): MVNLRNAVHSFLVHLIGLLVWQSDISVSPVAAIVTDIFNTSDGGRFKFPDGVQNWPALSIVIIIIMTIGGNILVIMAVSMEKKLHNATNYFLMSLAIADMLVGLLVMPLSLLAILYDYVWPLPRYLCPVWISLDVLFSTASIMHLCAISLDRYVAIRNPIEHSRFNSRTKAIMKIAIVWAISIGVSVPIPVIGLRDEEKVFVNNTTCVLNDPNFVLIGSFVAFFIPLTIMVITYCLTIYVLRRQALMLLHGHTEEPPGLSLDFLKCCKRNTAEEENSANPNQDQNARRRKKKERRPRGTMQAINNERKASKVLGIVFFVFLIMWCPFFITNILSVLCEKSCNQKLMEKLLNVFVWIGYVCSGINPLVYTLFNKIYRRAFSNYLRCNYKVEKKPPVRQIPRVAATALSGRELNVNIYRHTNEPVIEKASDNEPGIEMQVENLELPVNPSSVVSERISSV

[34] = molecular target: Muscarinic acetylcholine receptor M5 (Homo sapiens) (UniProt P08912); test: Agonist activity at M5 receptor (unknown origin) at 12.5 uM relative to control
Sequence of Muscarinic acetylcholine receptor M5 (Homo sapiens) (P08912 whole entry): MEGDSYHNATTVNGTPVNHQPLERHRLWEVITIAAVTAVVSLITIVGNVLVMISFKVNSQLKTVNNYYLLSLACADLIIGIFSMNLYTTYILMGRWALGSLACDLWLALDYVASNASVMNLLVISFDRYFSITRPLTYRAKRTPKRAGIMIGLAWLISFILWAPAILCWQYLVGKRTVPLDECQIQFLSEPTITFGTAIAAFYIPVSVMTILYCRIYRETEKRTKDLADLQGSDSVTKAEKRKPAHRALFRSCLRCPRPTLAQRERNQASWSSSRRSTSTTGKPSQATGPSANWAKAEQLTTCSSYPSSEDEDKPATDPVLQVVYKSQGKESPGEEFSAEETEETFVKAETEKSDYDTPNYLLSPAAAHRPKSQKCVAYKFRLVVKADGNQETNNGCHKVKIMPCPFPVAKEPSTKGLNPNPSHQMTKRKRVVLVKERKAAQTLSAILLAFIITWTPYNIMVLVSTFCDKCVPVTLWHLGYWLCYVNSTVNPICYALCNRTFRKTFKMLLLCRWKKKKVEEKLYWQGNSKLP

[35] = Drug excretion in Sprague-Dawley rat at 10 mg/kg, iv by LC-MS/MS analysis; type: ADME, organism-based; design: dose 10 mg/kg, route intravenous; settings: in vivo, read-out: Drug excretion

activity at 20 min, 10 µM [1]: 14.2% | Activity [2]: -0.2% | inhibition [3]: 104% | inhibition [4]: -2.1% | Activity [5]: -3.1% | concentration at 8 h [6]: 80 ng/mL | inhibition [7]: 71.2% | Activity [8]: -2.3% | inhibition [9]: -4.6% | concentration at 8 h [10]: 70 ng/mL | concentration at 2 h [11]: 138 ng/mL | Kp at 2 h [12]: 0.13 | activity at 20 min, 10 µM [13]: 72.7% | inhibition [14]: -0.1% | clearance [15]: 20.1 mL/min/kg | Activity [16]: 1.5% | Activity [17]: 0.3% | AUC(0-t) [18]: 9060 ng·h/mL | Kp at 2 h [19]: 0.14 | concentration at 2 h [20]: 156 ng/mL | Activity [21]: -0.9% | Activity [22]: 0.8% | inhibition [23]: 59.8% | MRT [25]: 1.31 h | AUC(0-inf) [26]: 9270 ng·h/mL | AUC(0-t) [27]: 4090 ng·h/mL | Activity [28]: 0.7% | Tmax [29]: 1.2 h | Cmax [30]: 1410 ng/mL | bioavailability [31]: 45.8% | inhibition [32]: 3.8% | inhibition [33]: -9.4% | Activity [34]: 0.9% | dose excreted [35]: 0%
SMILES: Cc1cc(C(=O)N2CCc3c(sc(NCc4ccccc4)c3C#N)C2)[nH]n1
Activity [24]: 60%
